Where two headings read alike, the source gives them in different places.
Columns and labels:
HeLa cells [1] = conditions: 18 hours
Method: (§2) Models of Apoptosis: • Three model systems of cell death were used: • 1. […] Apoptosis induced by Bax. This model utilizes an in vitro assay system for regulation of cell death by the Bcl-2 family of proteins: Cells were grown as described above in example 3a. Cells from log phase of growth were harvested using trypsin/EDTA and resuspended at a density of 5.0×10^6 cells/ml in 400 μl PBS. Cell suspension was then transferred to electroporation chambers containing a marker plasmid (pCDNA/Lac z) encoding beta-galactosidase as a reporter gene (10 μg)+a control plasmid (pCDNA), to bring total plasmid quantity to 23 micrograms+one of the following regimens: • 1. An expression plasmid, encoding Bcl-2 (0.42 μg) • 2. An expression plasmid, encoding Bax (0.42 μg). • 3. Bcl-2-encoding plasmid+Bax-encoding plasmid (0.42 μg each). • 4. Test compound, or an expression plasmid encoding for the test peptide+either Bcl-2-encoding plasmid or Bax-encoding plasmid or both. • 5. Control: only the marker plasmid.
Cell viability was then evaluated by determining beta-galactosidase activity.

HeLa cells [2] = experiment: In vitro assay system for regulation of cell death by the Bcl-2 family (Bax-induced cell death, electroporation, beta-galactosidase reporter); type: cell-based, Human; conditions: for cell viability as compared to controls: expression plasmid transfected alone by electroporation, 18 hours post-transfection
Source text: This assay is based on transient transfection of cultured cells (e.g., HeLa cells, SH-SY5Y neuroblastoma cells. PC12, pheochromocytoma cells, 293 kidney cells, primary neuronal cells etc.), via electroporation or cationic-lipid-mediated transfection, by an expression vector, harboring a reporter gene (e.g. the gene encoding for beta-galactosidase, or the gene encoding for luciferase). Based on the consideration that gene expression requires high level of function and integrity of cellular systems, a direct correlation can be drawn between the activity of the protein encoded by the reporter gene, and the survival rates of the transfected cells. The reporter gene is co-transfected with a second expression vector, carrying either the bcl-2 or bax genes, therefore affecting the cellular apoptotic threshold towards life or death, respectively. In addition, transfection of cells with a combination of both bcl-2 and bax genes is performed, to examine the activity of each of these two proteins in opposing the death-inhibitory or promoting-effect of the other, respectively.
(§1) a. Cell cultures: • 1. HeLa cells: Human cervical carcinoma cells (HeLa) were grown in Dulbecco's modified Eagle's medium (DMEM), supplemented with 10% fetal calf serum (FCS) and 1% penicillin-streptomycin-Nystatin solution (Biological Industries, Israel), and 1% L-Glutamine solution (2 mM, biological Industries, Israel). Cells were grown in monolayer at 37° C. in 5% CO2. • 2. Kidney 293 cells (T): Human embryonic kidney 293 cells were grown in the conditions described for the HeLa cells.
b. Models of Apoptosis: • Three model systems of cell death were used: • 1. Apoptosis induced by dopamine: Exposure of cells to dopamine at 100-500 micromolar for 24 hours induces cell death characteristic of apoptosis (Ziv I, et al., Neurosci Lett 170:136-140, 1994; Offen D, et al., Biochim Biophys Acta 1268:171-177, 1995; Masserano J M, et al., Mol Pharmacol 50:1309-1315, 1996; Shirvan A, et al., J. Neurochem 69:539-549, 1997; Corona V., et al., J. Neurochem 69:1870-1881, 1997; Velez-Pardo C, et al., Pharmacol Toxicol 80:76-84, 1997; Shinkai T, et al., J Neurosci Res. 393-399, 1997; Simantov R, et al., Neuroscience 74:39-50, 1996; Gabby M, et al., Neuropharmacology 35:571-578, 1996). […] Apoptosis induced by Bax. This model utilizes an in vitro assay system for regulation of cell death by the Bcl-2 family of proteins: Cells were grown as described above in example 3a. Cells from log phase of growth were harvested using trypsin/EDTA and resuspended at a density of 5.0×10^6 cells/ml in 400 μl PBS. Cell suspension was then transferred to electroporation chambers containing a marker plasmid (pCDNA/Lac z) encoding beta-galactosidase as a reporter gene (10 μg)+a control plasmid (pCDNA), to bring total plasmid quantity to 23 micrograms+one of the following regimens: • 1. An expression plasmid, encoding Bcl-2 (0.42 μg) • 2. An expression plasmid, encoding Bax (0.42 μg). • 3. Bcl-2-encoding plasmid+Bax-encoding plasmid (0.42 μg each). • 4. Test compound, or an expression plasmid encoding for the test peptide+either Bcl-2-encoding plasmid or Bax-encoding plasmid or both. • 5. Control: only the marker plasmid.
After one minute of incubation, electroporation was performed at 1050 μF and 220 V for a duration of 10-30 ms, using an Equibio gene pulser. Cells from the cuvettes were then pooled into a complete medium with 10% FCS, and 1×10^6 cells were aliquoted into 3.5 cm plates. At 18 hours post-transfection, cell viability was assessed through measurement of beta-galactosidase activity by standard methods (Sambrook, Fritch, Maniatis, Molecular cloning; A laboratory manual, Cold Spring Harbour Laboratory Press, pp 16.66, 1989). OD values were expressed as percent of control, and statistical significance was evaluated by appropriate parametric or non-parametric statistical tests.
Methods: An expression plasmid, encoding the DIP1 (synthesized as described above in Example 2) was used. […]

[3] = system: embryonic kidney 293T cells; experiment: Cell-killing effect of Bax on embryonic kidney 293T cells (beta-galactosidase reporter); type: cell-based, Human; conditions: expression plasmids encoding Bax and DIP1, Superfect transfection, 18 hours
Method: as §1
Methods: Human embryonic kidney 293T cells were grown as specified in Example 3.a. Cells were co-transfected using the Superfect Transfection Kit (Quiagen), with 5 μg total DNA of the following effectors: pCDNA/Lac-z reporter plasmid and one of the following:
• 1). Expression plasmid encoding DIP1. • 2). Expression plasmid encoding Bax. • 3). Expression plasmids, encoding Bax and DIP1.
After 18 hours, the cells were harvested for beta-galactosidase activity assay.
Human embryonic kidney 293T cells were co-transfected by […] with a reporter plasmid encoding beta-galactosidase, in combination with either an expression plasmid encoding DIP1; an expression plasmid encoding Bax; or expression plasmids encoding Bax and DIP1. Cell viability was evaluated after 18 hours, by measurement of beta-galactosidase activity.

HeLa cells [4] = experiment: Dopamine-induced cell death in HeLa cells (beta-galactosidase reporter viability); type: cell-based, Human; conditions: 18 hours; for cell survival rate: P<0.001
Method: as §2
Cell viability was then evaluated by the measurement of the beta-galactosidase activity, as specified above.
Synthetic DIP1 was introduced into HeLa cells with a beta-galactosidase reporter plasmid by electroporation. […] Cell viability was then evaluated by measurement of the beta-galactosidase activity.

## OO [hydrogen peroxide, reference compound]
HeLa cells [1]; hydrogen peroxide 100 μM alone, mean±SD
  cell survival rate: 20.4±2.8% of control
HeLa cells [1]; hydrogen peroxide 200 μM alone, mean±SD
  cell survival rate: 5.8±2.1% of control

## Bcl-2: death-inhibitory protein, expressed from a transfected expression plasmid
HeLa cells [2]; co-transfection with Bax-encoding plasmid, 18 hours
  cell-killing effect of Bax on co-transfection: markedly counteracted
HeLa cells [2]
  cell viability as compared to controls: increases cell viability

## H-FELRYRRAF-OH [DIP1, Phe-Glu-Leu-Arg-Tyr-Arg-Arg-Ala-Phe]
[3]
  counteracting Bax toxicity: markedly active in counteracting Bax toxicity
HeLa cells [4]; synthetic DIP1 by electroporation + dopamine 150 μM
  cell survival rate: 75.4+9.0%
HeLa cells [4]; synthetic DIP1 by electroporation + dopamine 300 μM
  cell survival rate: 40.2+8.0%
HeLa cells [2]; co-transfection of DIP1-encoding plasmid with Bax-encoding plasmid, 18 hours, p<0.001
  cell survival rate: 71.4 ± 9.4 % of control
HeLa cells [2]
  cell viability as compared to controls: markedly enhanced cell viability
HeLa cells [1]; synthetic DIP1 by electroporation + hydrogen peroxide 100 μM, p<0.001
  cell survival rate: 53.3±8.8%
HeLa cells [1]; synthetic DIP1 by electroporation + hydrogen peroxide 200 μM, p<0.001
  cell survival rate: 33.4±3.7%

## NCCc1ccc(O)c(O)c1 [dopamine, reference compound]
HeLa cells [4]; dopamine 150 μM alone
  cell survival: 30.8 ± 6.0% of control
HeLa cells [4]; dopamine 300 μM alone
  cell survival: 8.4 ± 7.0% of control

## Bax: death-inducing Bcl-2 family protein, expressed from a transfected expression plasmid
HeLa cells [2]; Bax-encoding plasmid alone, 18 hours
  cell survival rate: 37.0 ± 2.2%
HeLa cells [2]
  cell viability as compared to controls: marked death-inducing effect
